Structures can show the parent of a compound that is named as a salt. Where two headings read alike, the source gives them in different places.
Columns and labels:
[1] = target: T1, human 5-HT2B receptors (Homo sapiens, UniProt P41595); assay: Binding to 5-HT2B receptor, [3H]-5-HT radioligand, CHO cell line
T1 construct: expressed in transfected cells; host or cells: CHO cell line
Protocol: (§1) 1. Binding to Serotonin Receptors
(§2) The binding of compounds of formula (I) to serotonin receptors was determined in vitro by standard methods. The preparations were investigated in accordance with the assays given hereinafter.
Method (b): For the binding to the 5-HT2B receptor the 5-HT2B receptors were radiolabeled with [^3H]-5-HT. The affinity of the compounds for human 5-HT2B receptors in a CHO cell line was determined according to the procedure of K. Schmnuck, C. Ullmer, P. Engels and H. Lubbert, FEBS Lett., 1994, 342, 85-90.

[2] = target: T2, 5-HT2A receptor (Homo sapiens, UniProt P28223); assay: Functional activity, FLIPR calcium assay in CHO cells expressing human 5-HT2A; format: cell-based; parameters: expressed in transfected cells; host or cells: CHO cells; settings: for Emax: CHO, read-out: h5-HT2A Relative Efficacy (%)
T2 sequence (P28223 whole entry): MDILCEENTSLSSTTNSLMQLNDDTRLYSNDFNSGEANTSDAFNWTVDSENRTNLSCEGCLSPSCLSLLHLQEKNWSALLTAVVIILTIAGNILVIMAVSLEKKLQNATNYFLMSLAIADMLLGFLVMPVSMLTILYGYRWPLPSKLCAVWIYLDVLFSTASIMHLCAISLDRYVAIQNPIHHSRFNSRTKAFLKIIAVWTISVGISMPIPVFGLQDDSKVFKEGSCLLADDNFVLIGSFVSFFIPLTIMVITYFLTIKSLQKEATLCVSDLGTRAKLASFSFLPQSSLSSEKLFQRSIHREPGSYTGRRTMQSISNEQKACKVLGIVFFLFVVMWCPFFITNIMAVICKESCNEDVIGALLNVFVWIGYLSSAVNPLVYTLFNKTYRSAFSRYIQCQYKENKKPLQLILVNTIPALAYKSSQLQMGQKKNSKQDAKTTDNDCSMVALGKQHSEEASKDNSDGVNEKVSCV
Protocol: (§3) The functional activity of compounds of formula (I) was assayed using a Fluorimetric Imaging Plate reader (FLIPR). CHO cells expressing the human 5-HT2C or human 5-HT2A receptors were counted and plated into standard 96 well microtitre plates on the day before testing to give a confluent monolayer. The cells were then dye loaded with the calcium sensitive dye, Fluo-3-AM. Unincorporated dye was removed using an automated cell washer to leave a total volume of 100 μL/well of assay buffer (Hanks balanced salt solution containing 20 mM Hepes and 2.5 mM probenecid). The drug (dissolved in 50 μL of the assay buffer) was added at a rate of 70 μL/sec to each well of the FLIPR 96 well plate during fluorescence measurements. The measurements were taken at 1 sec intervals and the maximum fluorescent signal was measured (approx 10-15 secs after drug addition) and compared with the response produced by 10 μM 5-HT (defined as 100%) to which it was expressed as a percentage response (relative efficacy). Dose response curves were constructed using Graphpad Prism (Graph Software Inc.).

[3] = target: T3, 5-HT2C receptor (Homo sapiens, UniProt P28335); assay: Functional activity, FLIPR calcium assay in CHO cells expressing human 5-HT2C; format: cell-based; parameters: expressed in transfected cells; host or cells: CHO cells; settings: for Emax: CHO, read-out: h5-HT2C Relative Efficacy (%)
T3 sequence (P28335 33-458): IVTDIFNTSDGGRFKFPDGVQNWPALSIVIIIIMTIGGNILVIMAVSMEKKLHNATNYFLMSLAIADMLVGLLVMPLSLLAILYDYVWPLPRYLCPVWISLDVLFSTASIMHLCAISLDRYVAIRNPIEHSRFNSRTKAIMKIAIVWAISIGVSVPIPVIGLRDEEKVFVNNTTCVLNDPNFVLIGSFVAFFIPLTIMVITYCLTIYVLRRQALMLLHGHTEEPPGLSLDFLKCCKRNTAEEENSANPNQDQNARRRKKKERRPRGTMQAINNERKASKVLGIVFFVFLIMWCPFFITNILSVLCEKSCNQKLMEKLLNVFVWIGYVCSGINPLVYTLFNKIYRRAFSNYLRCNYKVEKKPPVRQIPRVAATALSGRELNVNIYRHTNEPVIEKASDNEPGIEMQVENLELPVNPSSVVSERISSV
Protocol: as §3

[4] = target: T3, 5-HT2C receptor; assay: Binding to 5-HT2C receptor, [3H]-5-HT radioligand, CHO cell line; parameters: expressed in transfected cells; host or cells: CHO cell line
Protocol: as §1, §2
Method (a): For the binding to the 5-HT2C receptor the 5-HT2C receptors were radiolabeled with [^3H]-5-HT. The affinity of the compounds for 5-HT2C receptors in a CHO cell line was determined according to the procedure of D. Hoyer, G. Engel and H. O. Kalkman, European J. Pharmacol., 1985, 118, 13-23.

[5] = target: T2, 5-HT2A receptor; assay: Binding to 5-HT2A receptor, [125I]-DOI radioligand, CHO cell line; parameters: expressed in transfected cells; host or cells: CHO cell line
Protocol: as §1, §2
Method (c): For the binding to the 5-HT2A receptor the 5-HT2A receptors were radiolabeled with [^125I]-DOI. The affinity of the compounds for 5-HT2A receptors in a CHO cell line was determined according to the procedure of D. J. McKenna and S. J. Peroutka, J. Neurosci., 1989, 9, 3482-90.

[6] = test system: 5-HT2C syndrome; assay: 5-HT2C syndrome in rats (splayed limbs, hunched posture, retro-pulsion); format: in vivo; settings: 30 mg/kg s.c.
Protocol: The efficacy of 5-HT2C agonists was assessed for ability to induce a specific syndrome.
The 5-HT2C syndrome is a rapid screening method to assess the in vivo efficacy of 5-HT2C agonists through their ability to induce three specific behaviours in rats. The animals are dosed with either a positive control (mCPP), test compound or vehicle, either sub-cutaneously or p.o. The animals are observed on an open bench, typically 30, 60 and 180 minutes and the degree of syndrome is assessed over a two minute period on a scale of 0-3 depending on the presence and severity of splayed limbs, hunched posture and retro-pulsion, the three specific behaviours which constitute the syndrome. Data is analysed using Kruskal-Wallis Analysis of Variance followed with appropriate post-hoc tests. All statistical analysis are conducted using Excel version 7.0 (Microsoft Corp.) and Statistica version 5.0 (Statsoft, Inc.).

[7] = cited from earlier work
[8] = cited from earlier work; remark: listed apart in the source
[9] = test system: 5-HT2C receptor; settings: cited from earlier work
[10] = [3H]-5-HT, human receptor, CHO cell line, read-out: Ki (2B)
[11] = FLIPR, CHO cells, Fluo-3-AM, read-out: h5-HT2A EC50
[12] = FLIPR, CHO cells, Fluo-3-AM, read-out: h5-HT2C EC50
[13] = [3H]-5-HT, CHO cell line, read-out: Ki (2C)
[14] = [125I]-DOI, CHO cell line, read-out: Ki (2A)

T1 sequence (P41595 whole entry): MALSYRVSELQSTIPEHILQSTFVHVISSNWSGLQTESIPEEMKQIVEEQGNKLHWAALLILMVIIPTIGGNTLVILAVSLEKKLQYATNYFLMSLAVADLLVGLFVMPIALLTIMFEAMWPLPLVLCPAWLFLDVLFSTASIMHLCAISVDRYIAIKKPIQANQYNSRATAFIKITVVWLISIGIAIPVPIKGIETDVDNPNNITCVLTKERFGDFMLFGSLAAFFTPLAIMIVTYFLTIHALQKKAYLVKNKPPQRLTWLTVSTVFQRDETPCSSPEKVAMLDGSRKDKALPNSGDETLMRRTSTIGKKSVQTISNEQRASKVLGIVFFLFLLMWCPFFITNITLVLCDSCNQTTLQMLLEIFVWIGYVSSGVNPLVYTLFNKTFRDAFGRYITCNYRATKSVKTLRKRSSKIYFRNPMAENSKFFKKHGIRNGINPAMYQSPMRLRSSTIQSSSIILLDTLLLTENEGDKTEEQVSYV

C[C@H](N)CN1CCc2ccc(C(F)(F)F)cc21 [Example 24]
Ki [1]: 148 nM | EC50 [2]: 3650 nM | Emax [2]: 33% | EC50 [3]: 131 nM | Emax [3]: 72% | Ki [4]: 235 nM | Ki [5]: 1870 nM

C[C@H](N)CN1CCc2ccc(Br)cc21 [Example 12]
Ki [1]: 42 nM | EC50 [2]: 2410 nM | Emax [2]: 49% | EC50 [3]: 230 nM | Emax [3]: 59% | Ki [4]: 77 nM | Ki [5]: 1090 nM

CC(N)CN1CCc2ccc(Cl)cc21 (racemic) [Example 1, (RS)-1-(6-Chloroindolin-1-yl)-2-propylamine Hydrochloride]
Ki [1]: 113 nM | time for which significant pharmacological efficacy is maintained (5-HT2C syndrome) [6]: at least 180 minutes | Ki [4]: 357 nM | Ki [5]: 405 nM

Clc1cccc(N2CCNCC2)c1 [mCPP, m-chlorophenylpiperazine]
appearance of the behavioural satiety sequence ([7]; rat, in vivo): accelerate the appearance of the behavioural satiety sequence | food intake in rats ([7]; rats): reduce food intake | appetite and body weight of obese subjects ([8]; obese male and female subjects, subchronic treatment for a 14 day period): decreased the appetite and body weight | food intake in female volunteers ([8]; single dose, female volunteers): decreased food intake | anorectic action in 5-HT2C receptor knockout mutant mice [9]: absent

C[C@@H](N)CN1CCc2ccc(C(F)(F)F)cc21 [Example 26]
Ki [1]: 761 nM | Ki [4]: 1160 nM | Ki [5]: 1260 nM

NCCN1CCc2ccc(Br)cc21 [Example 50, 2-(6-Bromoindolin-1-yl)-1-ethylamine Fumarate]
Ki [1, 10]: 159 nM | Emax [2]: 25% | EC50 [2, 11]: 4080 nM | Emax [3]: 78% | EC50 [3, 12]: 38 nM | Ki [4, 13]: 61 nM | Ki [5, 14]: 332 nM

CCCSc1ccc2c(c1)N(C[C@H](C)N)CC2 (as salt: fumarate) [Example 41]
melting point: 147 to 148 °C

C[C@H](N)CN1CCc2cc(F)c(F)cc21 [Example 22]
Ki [1]: 92 nM | EC50 [2]: 2570 nM | Emax [2]: 57% | EC50 [3]: 83 nM | Emax [3]: 87% | Ki [4]: 260 nM | Ki [5]: 325 nM

Cc1cc2c(cc1Cl)N(C[C@H](C)N)CC2 (as salt: fumarate) [Example 14]
melting point: 172 to 174 °C

CC(N)CN1CCc2ccc(OCc3ccccc3)cc21 (stereo not shown)
melting point: 178 to 179 °C

C[C@@H](N)CN1CCc2ccc(Cl)c(Cl)c21 (as salt: fumarate)
melting point: 213 to 214 °C

C[C@@H](N)CN1CCc2ccc(C(F)(F)F)cc21 (as salt: fumarate) [Example 26]
melting point: 196 to 197 °C

C[C@H](N)CN1CCc2ccc(Cl)cc21 [Example 10, (S)-1-(6-Chloroindolin-1-yl)-2-propylamine Fumarate]
Ki [1]: 138 nM | EC50 [2]: 2210 nM | Emax [2]: 49% | EC50 [3]: 125 nM | Emax [3]: 62% | Ki [4]: 55 nM | Ki [5]: 252 nM

C[C@H](N)CN1CCc2cc(F)cc(Cl)c21 (as salt: fumarate) [Example 17]
melting point: 195 to 196 °C

COc1ccc2c(c1)N(C[C@H](C)N)CC2 [Example 13]
Ki [1]: 175 nM | EC50 [2]: 386 nM | Emax [2]: 72% | EC50 [3]: 75 nM | Emax [3]: 74% | Ki [4]: 122 nM | Ki [5]: 461 nM

C[C@H](N)CN1CCc2cc(F)c(Br)cc21 (as salt: fumarate) [Example 25]
melting point: 195 to 196 °C

C[C@H](N)CN1CCc2cc(F)c(C(F)(F)F)cc21 (as salt: fumarate) [Example 60, (S)-1-(5-Fluoro-6-trifluoromethylindolin-1-yl)-2-propylamine Fumarate]
melting point: 190 to 192 °C

C[C@H](N)CN1CCc2ccc(C(F)(F)F)cc21 (as salt: fumarate) [Example 24]
melting point: 197 to 199 °C

NCCN1CCc2ccc(Cl)cc21 [Example 51, 2-(6-Chloroindolin-1-yl)-1-ethylamine Fumarate]
Ki [1, 10]: 140 nM | Emax [2]: 45% | EC50 [2, 11]: 1890 nM | Emax [3]: 88% | EC50 [3, 12]: 36 nM | Ki [4, 13]: 165 nM | Ki [5, 14]: 1110 nM

C[C@H](N)CN1CCc2ccc(F)cc21 (as salt: fumarate) [Example 9]
melting point: 150 to 153 °C

CCSc1cc2c(cc1F)CCN2C[C@H](C)N (as salt: fumarate) [Example 31]
melting point: 164 to 168 °C

C[C@H](N)CN1CCc2c(F)cccc21 (as salt: fumarate) [Example 35]
melting point: 167 to 168 °C

CC(N)CN1CCc2cc(OCc3ccccc3)ccc21 (stereo not shown) (as salt: fumarate) (hydrate or solvate)
melting point: 143 to 144 °C

C[C@H](N)CN1CCc2cc(F)ccc21 (as salt: fumarate) [Example 29]
melting point: 175 to 176 °C

COc1ccc2c(c1)N(C[C@H](C)N)CC2 (as salt: fumarate) [Example 13]
melting point: 175 to 176 °C

CN(C)CCN1CCc2ccc(Cl)cc21 (as salt: fumarate)
melting point: 144 to 146 °C

CCc1cccc2c1N(C[C@H](C)N)CC2 (as salt: fumarate) [Example 37]
melting point: 182 to 183 °C

C[C@H](N)CN1CCc2cccc(Br)c21 (as salt: fumarate) [Example 20]
melting point: 202 to 204 °C

C[C@H](N)CN1CCc2c(Cl)cccc21 (as salt: fumarate) [Example 38]
melting point: 190 to 192 °C

C[C@H](N)CN1CCc2cc(F)c(Br)cc21 [Example 25]
Ki [1]: 22 nM | EC50 [2]: 1240 nM | Emax [2]: 57% | EC50 [3]: 21 nM | Emax [3]: 81% | Ki [4]: 63 nM | Ki [5]: 156 nM

C[C@H](N)CN1CCc2cc(Cl)ccc21 (as salt: fumarate) [Example 28]
melting point: 207 to 210 °C
